# Measurements from patent US5968933A, “DNA-targeted alkylating agents” (Auckland Division Cancer Society of New Zealand Inc., priority 1994, dated 1999).
# “Also recorded” adds a separate entry of the source. Read-outs that look alike come from different tables or passages of the source.
# Tests used:
# AA8 cells = test: Growth inhibition in vitro, AA8; type: cell-based, Chinese hamster; conditions: for IC50: AA8 cells, 18 h exposure, then 72 h growth, methylene blue, read-out: IC50
# Description: (§1) Representative examples of compounds of the invention were tested for biological activity against tumors. Compounds 1 to 6 and 14 to 21, prepared as described above, were tested for their ability to inhibit growth in vitro of cells of the wild-type murine leukaemia cell line P388, and the cell line AA8 which is derived from Chinese hamster ovary cells. For each compound, the IC50, ie. the concentration of compound which inhibited cell growth in treated cultures to 50% of that of controls, was determined, using means of three determinations. In addition, a hypersensitivity factor was determined by comparing activity of the compounds against AA8 cells to activity against UV4. The latter cell line is deficient in aspects of the excision repair pathway for removing DNA adducts, and is hypersensitive to DNA-alkylating agents, especially interstrand crosslinking agents. Previous work has shown that the ratio of IC50 s determined in the wild-type AA8 and mutant UV4 lines (the hypersensitivity factor HF) is a determinant of the mode of cell killing by alkylating agents (Palmer, B. D. et al, J. Med. Chem., 1990 33 112-121; Wilson, W. R. et al, J. Med. Chem., 1989 32 31-38). Compounds with HFs of ca. 1 are unlikely to kill cells via DNA alkylation events. Compounds which show high HF values are likely to form bulky adducts or cross-links,with the latter being especially likely for compounds showing the highest HF values (>ca. 25) (Wilson et al, op. cit.).
# (§2) Cell lines were maintained in exponential growth phase by subculturing in RPMI 1640 (P338) or Alpha MEM (AA8, UV4) containing 10% fetal calf serum, as previously described (Palmer et al, op.cit.; Baguley, B. C. and Wilson, W. R., Eur. J. Cancer Clin. Oncol., 1987 23 607-613). IC50 values were determined using log-phase cultures in 96-well microculture plates, and were calculated as the nominal drug concentration required to reduce the cell density to 50% of control values, using 8 control cultures on each microplate. For P388 cultures, drug was present throughout the growth period (72 h), and final cell densities were determined using a minor modification of the MTT method of Mossman (Mossman, T., J. Immunol. Methods, 1983 65 55-63). For AA8 and UV4 cultures, drug exposure was terminated after 18 h by washing three times with fresh medium. Cultures were then grown for a further 72 h before determining cell density by staining with methylene blue (Finlay, G. J. et al, Anal. Biochem., 1984 139 272-277).
# linearized pSV2gpt DNA = test: DNA crosslinking assay (agarose gel electrophoresis of linearized plasmid); type: biochemical; conditions: 2 h at 30° C., TE-80 buffer pH 8
# Description: The ability of representative compounds of the invention to bind to and cross-link DNA was examined. This was carried out by agarose gel electrophoresis of plasmid DNA using linearized pSV2gpt DNA (Tindall, K. R. and Stankowski, L. F.; Mutation Research, 1989 220 241-245) and the method reported by Valu et al, 1990, op.cit. Briefly, linearized pSV2gpt DNA (1 μL of a 1 mg/mL solution) was incubated with drug in TE-80 buffer (10 mM Tris.HCl, 1 mM EDTA at pH 8), shielded from ambient light, for 2 h at 30° C., then denatured by the addition of […] of 1% sodium dodecyl sulfate and 10 μL of 50 mM methylmercury hydroxide and incubated for a further 30 min at 20° C. in the dark. Renaturation of drug-treated DNA samples was carried out by incubation with 2.5 μL of 2-mercaptoethanol for 1 h. Samples were prepared for electrophoresis by the addition of 0.1 mg/mL bromophenol blue, 0.5 μg/mL ethidium bromide and 5 μL of 40% sucrose. Electrophoresis was carried out at 120V in 89 mM tris/borate buffer at pH 8 containing 2 mM EDTA and 0.5 μg/mL ethidium bromide. DNA was visualized using 302 nm trans-illumination, and was photographed using Polaroid type 55 film and a Wratten 3A filter.
# After drug treatment, DNA is denatured to the single stranded form, which runs as a lower band in the gels (see lanes 1 and 2 in FIG. 1). Cross-linking by the drugs is evidenced by the appearance of increasing amounts of renatured, double stranded DNA, as shown by the upper band in the gels, corresponding to the band for untreated DNA seen in lane 1.
# [1] = test system: Saccharomyces cerevisiae strain D5
# P388 cells = test: Growth inhibition in vitro, P388 leukaemia; type: cell-based, murine; conditions: P388 cells, 72 h, MTT, read-out: IC50
# Description: as §1, §2
# AA8 and UV4 cells = test: Hypersensitivity factor (AA8/UV4 IC50 ratio); type: cell-based, Chinese hamster; conditions: ratio of IC50s AA8/UV4
# Description: as §1, §2
# P338 murine leukaemia = type: in vivo, mice; conditions: for in vivo antitumour activity: P388, single-dose protocol; for % Increase in lifespan: single i.p. dose 24 h after tumour inoculation, at optimal dose (mg/kg: 1 30; 2 30; 3 13.3; 4 3.9; 5 5.9; 6 8.9)
# S. typhimurium TA100 = test: Bacterial mutagenicity, plate incorporation assay, TA100; conditions: for reversion colonies, TA100: mean ± SD; for mutagenicity in TA100: statistical analysis
# S. typhimurium TA98 = test: Bacterial mutagenicity, plate incorporation assay, TA98; conditions: mean ± SD
# S. typhimurium TA102 = test: Bacterial mutagenicity, plate incorporation assay, TA102; conditions: mean ± SD
# calf thymus DNA [2] = test: Rate of alkylation of calf thymus DNA by increase in DNA-bound fluorescence; type: biochemical; design: unit not given here
# calf thymus DNA [3] = test: Reversible DNA binding by spectrophotometric Scatchard analysis; conditions: 20° C., 0.01M HEPES buffer, pH 7.00
# DNA minor groove = conditions: background; cited from earlier work
# solid tumour lines = conditions: other studies; cited from earlier work
# L1210 leukemia = conditions: repeated dose schedule; cited from earlier work
# [4] = 80 μg/plate, square brackets: toxicity becoming apparent
# [5] = 120 μg/plate, square brackets: toxicity becoming apparent
# [6] = 40 μg/plate, square brackets: toxicity becoming apparent
SMILES,IC50 (AA8 cells),Cross-linking (linearized pSV2gpt DNA),IC50 (P388 cells),Hypersensitivity factor (AA8 and UV4 cells),in vivo antitumour activity (P338 murine leukaemia),Optimal dose (P338 murine leukaemia; single i.p. dose),"reversion colonies, TA100 (S. typhimurium TA100; 4 μg/plate)","reversion colonies, TA100 (S. typhimurium TA100; 10 μg/plate)","reversion colonies, TA100 (S. typhimurium TA100; 20 μg/plate)","reversion colonies, TA100 (S. typhimurium TA100; 40 μg/plate)","reversion colonies, TA100 (S. typhimurium TA100; 80 μg/plate)","reversion colonies, TA98 (S. typhimurium TA98; 4 μg/plate)","reversion colonies, TA98 (S. typhimurium TA98; 10 μg/plate)","reversion colonies, TA98 (S. typhimurium TA98; 20 μg/plate)","reversion colonies, TA98 (S. typhimurium TA98; 40 μg/plate)","reversion colonies, TA98 (S. typhimurium TA98; [4])","reversion colonies, TA102 (S. typhimurium TA102; 4 μg/plate)","reversion colonies, TA102 (S. typhimurium TA102; 10 μg/plate)","reversion colonies, TA102 (S. typhimurium TA102; 20 μg/plate)",Site size (Number of nucleotide residues) (calf thymus DNA [3]),also measured
"CN1CCN(c2ccc3nc(-c4ccc5nc(-c6ccc(N(CCCl)CCCl)cc6)[nH]c5c4)[nH]c3c2)CC1 [Compound 2, 2-[2-[4-(N,N-bis(2-chloroethyl)amino)phenyl]-5-benzimidazolyl]-5-(1-methyl-4-piperazinyl)benzimidazole]",1680 nM,No,800 nM,24,highest activity,30 mg/kg,173 ± 7,175 ± 17,167 ± 28,210 ± 20,192 ± 1,61 ± 3,68 ± 2,58 ± 1,52 ± 7,55 ± 2,408 ± 31,371 ± 14,280 ± 14,2.6 nucleotide residues,"bacterial mutagenicity (S. typhimurium strains): inactive as a bacterial mutagen; petite (mitochondrial) mutagenesis [1]: inactive; % Increase in lifespan (P338 murine leukaemia): 106%; average number of animals in a group of six which were long-term survivors (P338 murine leukaemia; single i.p. dose, optimal dose, group of six): 2 animals; Rate constant for alkylation (calf thymus DNA [2]): 1.78 × 10^4"
"CN1CCN(c2ccc3nc(-c4ccc5nc(CCCc6ccc(N(CCCl)CCCl)cc6)[nH]c5c4)[nH]c3c2)CC1 [Compound 5, 2-[2-[3-[4-(N,N-bis(2-chloroethyl)amino)phenyl]propyl]-5-benzimidazolyl]-5-(1-methyl-4-piperazinyl)benzimidazole]",1320 nM,No,20 nM,46,inactive in vivo at all doses up to the maximum tolerable dose,5.9 mg/kg,188 ± 15,180 ± 5,205 ± 14,240 ± 7,258 ± 21,63 ± 2,62 ± 1,71 ± 13,62 ± 3,63 ± 9,342 ± 32,392 ± 31,368 ± 32,3.0 nucleotide residues,"aberrant colonies in yeast ([1]; yeast strain D5, in words): some aberrant colonies; mitotic crossing-over ([1]; yeast strain D5, in words): weak mitotic crossing-over; % Increase in lifespan (P338 murine leukaemia): not active; mutagenicity in TA100 (S. typhimurium TA100): could be considered to show a mutagenic effect in TA100; also recorded: mutagenic ability; reversion colonies, TA98 (S. typhimurium TA98; [5]): 71 ± 1; reversion colonies, TA102 (S. typhimurium TA102; [6]): 327 ± 17; reversion colonies, TA102 (S. typhimurium TA102; [4]): 480 ± 17; reversion colonies, TA102 (S. typhimurium TA102; [5]): 607 ± 28; Rate constant for alkylation (calf thymus DNA [2]): 6.52 × 10^4"
"CN1CCN(c2ccc3nc(-c4ccc5nc(CCCCCCc6ccc(N(CCCl)CCCl)cc6)[nH]c5c4)[nH]c3c2)CC1 [Compound 6, 2-[2-[6-[4-(N,N-bis(2-chloroethyl)amino)phenyl]hexyl]-5-benzimidazolyl]-5-(1-methyl-4-piperazinyl)benzimidazole]",400 nM,Yes and crosslinked DNA,60 nM,20,,8.9 mg/kg,160 ± 13,136 ± 0,156 ± 29,144 ± 10,142 ± 10,65 ± 10,69 ± 7,68 ± 8,69 ± 9,96 ± 5,271 ± 31,386 ± 10,342 ± 14,2.4 nucleotide residues,"bacterial mutagenicity (S. typhimurium strains; overall): lower bacterial mutagenicity; petite (mitochondrial) mutagenesis ([1]; yeast strain D5, in words): showed activity, albeit weak; % Increase in lifespan (P338 murine leukaemia): 23%; reversion colonies, TA100 (S. typhimurium TA100; [5]): 157 ± 14; reversion colonies, TA98 (S. typhimurium TA98; [5]): 75 ± 3; reversion colonies, TA102 (S. typhimurium TA102; [6]): 372 ± 19; reversion colonies, TA102 (S. typhimurium TA102; [4]): 336 ± 19; reversion colonies, TA102 (S. typhimurium TA102; [5]): 353 ± 34; Rate constant for alkylation (calf thymus DNA [2]): 9.64 × 10^4"
"CN1CCN(c2ccc3nc(-c4ccc5nc(-c6ccc(O)cc6)[nH]c5c4)[nH]c3c2)CC1 [Pibenzimol, reference compound]",,,,about unity,not active against P388 using the single-dose protocol,,188 ± 11,191 ± 7,179 ± 6,168 ± 13,178 ± 11,59 ± 3,64 ± 8,55 ± 6,61 ± 5,62 ± 9,275 ± 12,277 ± 1,301 ± 3,2.4 nucleotide residues,"activity against the AA8 cell line (AA8 cells; compared with P388, shorter exposure time): much less active; petite (mitochondrial) mutagenesis [1]: not active in this system; binding to DNA minor groove (DNA minor groove): binds to regions of the minor groove rich in adenine and thymine bases; IC50 (P388 cells; Mus musculus): ~1000 nM; cytotoxicity in solid tumour lines (solid tumour lines): very low cytotoxicity; mutagenicity in TA100 (S. typhimurium TA100): no statistically significant mutagenic response in TA100; reversion colonies, TA102 (S. typhimurium TA102; [6]): 377 ± 49; reversion colonies, TA102 (S. typhimurium TA102; [4]): 397 ± 10; in vivo activity against L1210 leukemia (L1210 leukemia): moderate in vivo activity"
